Laboratory results: ChEMBL document CHEMBL1201862, “PubChem BioAssay data set” (2004)
Calls of active or inactive are those of the source.

Experiments:
Steroidogenic factor 1 = Steroidogenic factor 1 (Homo sapiens, UniProt Q13285); test: Counterscreen for inverse agonists of the liver receptor homolog-1 (LRH-1; NR5A2): Luminescence-based cell-based high throughput dose response assay to identify inverse agonists of the Steroidogenic Factor 1 Nuclear Receptor (SF1; NR5A1).; assay type: functional
Steroidogenic factor 1, sequence (Q13285 whole entry): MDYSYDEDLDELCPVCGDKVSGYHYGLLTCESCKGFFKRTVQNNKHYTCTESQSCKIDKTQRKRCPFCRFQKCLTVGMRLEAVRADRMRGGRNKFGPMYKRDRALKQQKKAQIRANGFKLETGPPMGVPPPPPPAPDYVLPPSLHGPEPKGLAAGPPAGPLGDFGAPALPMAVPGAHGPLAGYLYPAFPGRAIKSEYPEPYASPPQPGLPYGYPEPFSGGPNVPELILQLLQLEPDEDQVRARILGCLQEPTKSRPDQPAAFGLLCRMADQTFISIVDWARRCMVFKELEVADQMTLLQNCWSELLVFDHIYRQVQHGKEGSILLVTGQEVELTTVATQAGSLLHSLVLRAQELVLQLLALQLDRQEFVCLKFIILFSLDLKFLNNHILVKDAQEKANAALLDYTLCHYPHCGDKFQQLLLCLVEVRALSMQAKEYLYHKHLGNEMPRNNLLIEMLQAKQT

[1] = NIH3T3 cell viability loss – ATP luminescence, mouse fibroblasts, counter-screen, dose response (AID 2010); assay type: functional, cell-based;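 further: cells exposed to compound for about 90 hours before reading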
[2] = molecular target: Nuclear receptor subfamily 5 group A member 2 (Homo sapiens, UniProt O00482); assay type: functional, cell-based;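 further: HEK293T cells transfected with LRH-1 and a StAR promoter luciferase reporter; potency for inhibitors that lower LRH-1 driven reporter light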
Nuclear receptor subfamily 5 group A member 2, sequence (O00482 whole entry): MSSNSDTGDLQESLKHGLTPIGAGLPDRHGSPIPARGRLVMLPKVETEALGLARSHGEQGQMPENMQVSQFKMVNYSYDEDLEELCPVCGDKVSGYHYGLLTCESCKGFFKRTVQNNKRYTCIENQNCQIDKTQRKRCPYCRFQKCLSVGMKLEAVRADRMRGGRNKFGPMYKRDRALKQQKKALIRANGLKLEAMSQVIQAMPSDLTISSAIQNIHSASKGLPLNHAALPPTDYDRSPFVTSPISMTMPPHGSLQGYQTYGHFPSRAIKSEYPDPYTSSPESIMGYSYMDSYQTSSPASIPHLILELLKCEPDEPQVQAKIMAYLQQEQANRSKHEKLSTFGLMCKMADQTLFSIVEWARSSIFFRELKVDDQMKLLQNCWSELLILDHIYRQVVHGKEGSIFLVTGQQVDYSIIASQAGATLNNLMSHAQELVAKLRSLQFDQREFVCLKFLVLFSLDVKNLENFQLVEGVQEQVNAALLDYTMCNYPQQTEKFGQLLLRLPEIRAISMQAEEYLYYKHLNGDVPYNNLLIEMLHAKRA

[3] = Trypanosoma cruzi growth suppression in host cells – NIH3T3 host cells, beta-gal luminescence, confirmation (AID 2044); assay type: functional, cell-based;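 further: intracellular parasites grown in NIH/3T3 mouse fibroblasts as host cells; luminescent beta-galactosidase reporter signal from transgenic T. cruzi replicating inside host cells; inhibitors lower the luminescence signal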
[4] = nonselective StAR promoter luciferase inhibitors – cell-based, luminescence, luciferase reporter, counter-screen for LRH-1 inverse agonist project, dose response (AID 651969); assay type: functional
[5] = molecular target: NAD-dependent protein deacylase sirtuin-5, mitochondrial (Homo sapiens, UniProt Q9NXA8); test: sirtuin-5 deacylation blockers, concentration series – biochemical, fluorescence imaging, cherry-pick, set 5, dose response (AID 720591);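 further: desuccinylation of succinyl peptide AMC substrate read as fluorescence after trypsin release; potency of inhibitors that lower fluorescence and may act on trypsin instead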
NAD-dependent protein deacylase sirtuin-5, mitochondrial, sequence (Q9NXA8 whole entry): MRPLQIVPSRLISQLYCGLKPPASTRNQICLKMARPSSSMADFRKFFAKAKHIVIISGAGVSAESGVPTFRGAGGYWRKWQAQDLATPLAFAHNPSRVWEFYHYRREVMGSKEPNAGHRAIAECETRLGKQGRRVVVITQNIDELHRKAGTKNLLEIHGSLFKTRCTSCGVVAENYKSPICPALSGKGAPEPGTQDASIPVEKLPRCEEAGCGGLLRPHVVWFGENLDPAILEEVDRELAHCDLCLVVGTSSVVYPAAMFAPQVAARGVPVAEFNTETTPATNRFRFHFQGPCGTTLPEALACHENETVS

Beta-lactamase [6] = molecular target: T1, Beta-lactamase (Pseudomonas aeruginosa, UniProt Q79MP6); test: inhibition of IMP-1 beta-lactamase activity – biochemical, epi-absorbance, selectivity assay for VIM-2 inhibitor project, dose response (AID 1920)
T1 sequence (Q79MP6 whole entry): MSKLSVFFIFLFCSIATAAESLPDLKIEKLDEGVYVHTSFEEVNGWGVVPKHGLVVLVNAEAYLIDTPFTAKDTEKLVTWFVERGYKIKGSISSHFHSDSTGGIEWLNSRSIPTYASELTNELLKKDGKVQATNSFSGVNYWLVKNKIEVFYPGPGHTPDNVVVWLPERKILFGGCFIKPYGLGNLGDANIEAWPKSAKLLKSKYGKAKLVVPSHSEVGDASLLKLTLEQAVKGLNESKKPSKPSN

[7] = molecular target: Dual specificity tyrosine-phosphorylation-regulated kinase 1A (Rattus norvegicus, UniProt Q63470); assay type: biochemical, Homo sapiens
Beta-lactamase [8] = molecular target: Beta-lactamase (Salmonella choleraesuis (strain SC-B67), UniProt Q5J463); test: Epi-absorbance-based counterscreen for selective VIM-2 inhibitors: dose response biochemical high throughput screening assay to identify inhibitors of TEM-1 serine-beta-lactamase.
Beta-lactamase (Salmonella choleraesuis (strain SC-B67), UniProt Q5J463), sequence (Q5J463 whole entry): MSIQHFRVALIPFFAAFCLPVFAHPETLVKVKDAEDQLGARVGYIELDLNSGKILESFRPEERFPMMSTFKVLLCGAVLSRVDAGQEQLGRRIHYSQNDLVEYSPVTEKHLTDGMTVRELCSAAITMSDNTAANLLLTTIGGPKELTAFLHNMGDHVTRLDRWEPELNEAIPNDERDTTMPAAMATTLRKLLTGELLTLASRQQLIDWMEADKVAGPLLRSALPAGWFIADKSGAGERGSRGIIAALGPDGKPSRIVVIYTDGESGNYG

Beta-lactamase [9] = molecular target: T1, Beta-lactamase; test: […] counterscreen for selective VIM-2 inhibitors: dose response biochemical high throughput screening assay to identify inhibitors of IMP-1 metallo-beta-lactamase.
[10] = molecular target: T2, Methionyl-tRNA synthetase, putative (Trypanosoma brucei brucei, UniProt Q38C91); assay type: functional, Trypanosoma brucei brucei strain 927/4 GUTat10.1
T2 sequence (Q38C91 whole entry): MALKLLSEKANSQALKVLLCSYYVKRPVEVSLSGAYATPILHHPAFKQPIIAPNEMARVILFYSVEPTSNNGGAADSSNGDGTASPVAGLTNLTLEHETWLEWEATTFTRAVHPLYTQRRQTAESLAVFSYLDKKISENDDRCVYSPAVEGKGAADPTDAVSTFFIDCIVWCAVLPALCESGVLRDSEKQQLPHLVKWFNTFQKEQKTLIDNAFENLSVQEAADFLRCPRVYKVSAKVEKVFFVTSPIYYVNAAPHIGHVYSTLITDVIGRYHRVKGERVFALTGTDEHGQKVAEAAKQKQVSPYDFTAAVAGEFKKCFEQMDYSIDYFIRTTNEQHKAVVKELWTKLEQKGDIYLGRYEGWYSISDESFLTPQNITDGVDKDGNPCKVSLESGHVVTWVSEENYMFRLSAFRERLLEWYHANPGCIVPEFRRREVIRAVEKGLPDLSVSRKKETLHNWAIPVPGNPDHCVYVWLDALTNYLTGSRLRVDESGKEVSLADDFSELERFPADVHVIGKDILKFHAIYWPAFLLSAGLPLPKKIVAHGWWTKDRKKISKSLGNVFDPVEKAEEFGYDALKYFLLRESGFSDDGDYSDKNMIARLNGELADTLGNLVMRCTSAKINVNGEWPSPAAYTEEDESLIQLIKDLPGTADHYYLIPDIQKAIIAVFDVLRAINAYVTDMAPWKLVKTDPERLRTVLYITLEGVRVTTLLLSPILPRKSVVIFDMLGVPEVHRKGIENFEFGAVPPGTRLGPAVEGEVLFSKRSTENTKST

[11] = Counterscreen for inhibitors of Trypanosoma brucei methionyl tRNA synthetase (MetRS): Luminescence-based cell-based high throughput dose response assay to identify compounds that are cytotoxic to Jurkat human T lymphocyte cells.; assay type: functional
[12] = molecular target: T2, Methionyl-tRNA synthetase, putative; assay type: functional, Trypanosoma brucei brucei strain 927/4 GUTat10.1; remark: listed apart in the source
[13] = reduction of Shn3 3'UTR-driven luciferase in osteoblasts – cell-based, Clone20 osteoblasts, firefly luciferase, cherry-picked, dose response (AID 624132); assay type: functional;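 further: firefly luciferase luminescence from reporter carrying the Shn3 3'UTR in osteoblasts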
[14] = loss of viability in HepG2 cells – cell-based, CellTiter-Glo, cherry-picked, cytotoxicity control for Shn3 inhibitor project, dose response (AID 624134); assay type: functional
Caspase-6 = molecular target: T3, Caspase-6 (Homo sapiens, UniProt P55212); test: inhibition of CASP6 peptide cleavage – biochemical, VEID-R110 fluorescence, cherry-pick, dose response (AID 720632)
T3 sequence (P55212 whole entry): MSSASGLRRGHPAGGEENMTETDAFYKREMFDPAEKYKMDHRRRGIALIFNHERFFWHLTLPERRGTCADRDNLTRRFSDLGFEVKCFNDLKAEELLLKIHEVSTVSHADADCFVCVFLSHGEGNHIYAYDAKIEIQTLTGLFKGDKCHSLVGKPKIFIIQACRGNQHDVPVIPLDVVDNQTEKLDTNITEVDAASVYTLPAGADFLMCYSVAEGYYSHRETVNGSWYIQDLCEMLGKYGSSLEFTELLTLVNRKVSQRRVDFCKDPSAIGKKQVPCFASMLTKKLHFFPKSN

[15] = non-specific 3'UTR reporter inhibition in Clone20-Shn3RL – cell-based, Renilla luciferase, cherry-picked, counter-screen for Shn3 inhibitor project, dose response (AID 624133); assay type: functional
[16] = molecular target: T4, Sentrin-specific protease 1 (Homo sapiens, UniProt Q9P0U3); test: Dose response confirmation of small molecule inhibitors of the catalytic domain of the SUMO protease, SENP1 in a FRET assay.; assay type: functional; conditions: read-out: IC50_Mean
T4 sequence (Q9P0U3 whole entry): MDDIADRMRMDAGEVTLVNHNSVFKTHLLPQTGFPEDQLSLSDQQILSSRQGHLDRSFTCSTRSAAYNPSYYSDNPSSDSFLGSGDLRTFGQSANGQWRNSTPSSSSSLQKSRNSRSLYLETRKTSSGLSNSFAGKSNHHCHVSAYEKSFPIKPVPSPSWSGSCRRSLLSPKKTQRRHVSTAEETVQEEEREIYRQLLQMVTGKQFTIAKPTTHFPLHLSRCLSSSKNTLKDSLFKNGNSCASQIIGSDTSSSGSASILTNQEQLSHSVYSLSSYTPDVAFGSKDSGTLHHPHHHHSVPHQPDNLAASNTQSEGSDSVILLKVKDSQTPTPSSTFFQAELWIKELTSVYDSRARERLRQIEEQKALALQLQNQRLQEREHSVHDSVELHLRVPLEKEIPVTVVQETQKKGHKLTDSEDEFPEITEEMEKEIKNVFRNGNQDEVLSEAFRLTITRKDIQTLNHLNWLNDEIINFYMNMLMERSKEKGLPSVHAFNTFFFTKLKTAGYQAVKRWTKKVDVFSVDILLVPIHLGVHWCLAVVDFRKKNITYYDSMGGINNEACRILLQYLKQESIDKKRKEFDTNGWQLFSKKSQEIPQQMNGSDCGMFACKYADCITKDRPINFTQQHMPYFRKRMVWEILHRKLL

[17] = molecular target: T4, Sentrin-specific protease 1; test: SENP1 catalytic domain blockers, concentration series – biochemical, kinetic FRET, dose response (AID 651697); assay type: functional; conditions: read-out: IC50_Mean
[18] = potency of ADAM10 substrate cleavage blockers – biochemical, QFRET, dose response (AID 743254);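 further: ADAM10 enzyme with the DM2 quenched FRET peptide as substrate; EDANS fluorescence gain as the protease cuts the substrate; inhibitor potency against ADAM10 proteolytic activity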
[19] = molecular target: Disintegrin and metalloproteinase domain-containing protein 17 (Homo sapiens, UniProt P78536); test: inhibition of ADAM17 substrate cleavage – biochemical, quenched FRET substrate, counter-screen for ADAM10 exosite inhibitor project, dose response (AID 743253)
Disintegrin and metalloproteinase domain-containing protein 17, sequence (P78536 whole entry, the tested form may be a part): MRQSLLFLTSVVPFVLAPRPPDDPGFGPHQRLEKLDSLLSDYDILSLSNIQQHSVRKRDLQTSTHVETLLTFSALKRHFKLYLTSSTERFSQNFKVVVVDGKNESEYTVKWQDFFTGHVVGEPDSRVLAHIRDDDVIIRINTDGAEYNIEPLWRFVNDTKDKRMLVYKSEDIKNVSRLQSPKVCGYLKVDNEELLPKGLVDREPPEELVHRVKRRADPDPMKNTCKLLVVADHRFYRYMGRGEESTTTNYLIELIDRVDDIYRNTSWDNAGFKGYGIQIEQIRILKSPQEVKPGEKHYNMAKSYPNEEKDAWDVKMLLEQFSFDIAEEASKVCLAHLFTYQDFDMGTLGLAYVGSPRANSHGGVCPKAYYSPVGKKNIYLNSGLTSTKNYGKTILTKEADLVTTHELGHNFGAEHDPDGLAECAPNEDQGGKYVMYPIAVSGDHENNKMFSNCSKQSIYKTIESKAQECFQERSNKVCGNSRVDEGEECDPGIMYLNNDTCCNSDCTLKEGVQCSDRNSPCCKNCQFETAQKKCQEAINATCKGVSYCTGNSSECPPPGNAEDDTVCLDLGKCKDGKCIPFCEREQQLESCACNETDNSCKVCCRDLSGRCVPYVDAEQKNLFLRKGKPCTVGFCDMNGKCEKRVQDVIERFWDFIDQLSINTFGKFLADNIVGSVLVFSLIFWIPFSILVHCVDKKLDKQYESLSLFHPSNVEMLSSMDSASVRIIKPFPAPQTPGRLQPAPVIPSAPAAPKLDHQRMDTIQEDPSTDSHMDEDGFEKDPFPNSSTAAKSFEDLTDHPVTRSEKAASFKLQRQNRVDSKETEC

Albumin = Albumin (Bos taurus, UniProt P02769); test: Counterscreen for inhibitors of T-cell receptor (TCR)-CD3 interaction: Fluorescence-based biochemical high throughput dose response assay to identify inhibitors of T-cell receptor (TCR)-CD3 interaction using a TAMRA-labeled BSA probe.; assay type: functional
Albumin, sequence (P02769 whole entry): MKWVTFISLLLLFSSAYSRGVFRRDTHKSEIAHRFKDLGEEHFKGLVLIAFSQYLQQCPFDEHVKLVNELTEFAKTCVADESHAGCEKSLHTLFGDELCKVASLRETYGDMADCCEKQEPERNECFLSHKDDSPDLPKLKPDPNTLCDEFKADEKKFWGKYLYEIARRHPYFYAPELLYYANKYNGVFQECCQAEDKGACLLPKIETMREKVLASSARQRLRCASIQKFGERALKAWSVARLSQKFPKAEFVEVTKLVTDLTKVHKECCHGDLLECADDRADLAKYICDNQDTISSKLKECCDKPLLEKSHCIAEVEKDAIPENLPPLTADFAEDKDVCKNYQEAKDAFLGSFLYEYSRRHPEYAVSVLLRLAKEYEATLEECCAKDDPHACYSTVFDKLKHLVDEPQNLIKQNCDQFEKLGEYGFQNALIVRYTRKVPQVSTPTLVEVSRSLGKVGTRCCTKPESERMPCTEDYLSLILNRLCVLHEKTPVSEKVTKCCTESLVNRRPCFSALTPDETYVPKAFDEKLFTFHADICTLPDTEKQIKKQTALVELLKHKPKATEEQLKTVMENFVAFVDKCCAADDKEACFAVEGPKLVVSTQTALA

In the case of `CN1CCN(c2ccc(S(=O)(=O)N3CCCCC3)cc2NC(=O)COc2ccc([N+](=O)[O-])cc2)CC1`, the IC50 (Steroidogenic factor 1) is reported as 1.48 µM (active), the EC50 [1] is reported as > 30 µM (not active) and the IC50 [2] is reported as 35.9 µM (inactive). The EC50 [3] was 0.353 µM (active) and the IC50 [4] was 35.9 µM (inactive).

For `COc1ccc(CC(=O)NC(C)c2nnc(SCCOc3ccc(OC)cc3)n2C)cc1` (stereo not drawn), the AC50 [5] was 24.2 µM (active).

For `O=C(O)c1[nH]c2ccc(Cl)cc2c1CCN1C(=O)c2ccccc2C1=O`, the IC50 (Beta-lactamase [6]) was > 59.6 µM (inactive), the AC50 [7] was 13.6 µM (active) and the IC50 (Beta-lactamase [8]) was > 59.6 µM (inactive). The IC50 (Beta-lactamase [9]) was > 59.6 µM (inactive).

In the case of `Clc1cccc(CNc2nc(-c3cccnc3)nc3ccccc23)c1`, the EC50 [1] is reported as > 60 µM (not active), the IC50 [10] is reported as 32 µM (inactive) and the IC50 [11] is reported as 41.9 µM (inactive). For the same compound, the IC50 [12] was 16.4 µM (inactive) and the EC50 [3] was 0.952 µM (active).

For `COc1ccc(-c2cc(C(F)(F)F)nc(N3CCN(C)CC3)n2)cc1`, the IC50 (Beta-lactamase [6]) was > 59.6 µM (inactive), the IC50 (Beta-lactamase [8]) was > 59.6 µM (inactive) and the IC50 (Beta-lactamase [9]) was > 59.6 µM (inactive).

In the case of `CC1CCCC(C)N1C(=O)CSc1nnc(NC(=O)c2cccs2)s1` (stereo not drawn), the IC50 (Beta-lactamase [6]) is reported as > 59.6 µM (inactive), the IC50 (Beta-lactamase [8]) is reported as > 59.6 µM (inactive) and the IC50 (Beta-lactamase [9]) is reported as > 59.6 µM (inactive).

In the case of `Cc1cc(C(=O)NNS(=O)(=O)c2cc(C(=O)O)ccc2Cl)c(C)n1-c1ccccc1`, the AC50 [13] is reported as 25.7 µM (active), the AC50 [14] is reported as > 70 µM (inactive) and the AC50 (Caspase-6) is reported as 23.2 µM (active). For the same compound, the AC50 [15] was 16.9 µM (active).

With `Cc1cc(NC(=O)CSc2nc3ccccc3cc2C#N)no1` the IC50 [16] was 11 µM (active) and the IC50 [17] was 19.3 µM (active).

For `COC(=O)c1ccc(-c2cc3onc(-c4ccccc4)c3c(=O)n2C)cc1`, the IC50 [18] was > 69.5 µM (inactive) and the IC50 [19] was > 69.5 µM (inactive).

With `COc1ccc(C(=O)NNC(=S)NC(=O)c2cccnc2)cc1` the IC50 (Albumin) was > 94.1 µM (inactive).

For `CCCc1cc(=O)oc2cc(OCC(=O)NCc3ccccn3)ccc12`, the IC50 (Steroidogenic factor 1) was 1.97 µM (active), the IC50 [2] was 35.9 µM (inactive) and the IC50 [4] was 35.9 µM (inactive).
